Assay results from patent US12421228B2 (Mirati Therapeutics, Inc., priority 2019, dated 2025).
pIC50: −log10 of the molar value.

Tests used:
[1] = biological target: purified human, His-tagged PRC2 complex (Homo sapiens (Human), UniProt O75530); assay: Hot Spot HMT assay, inhibition of PRC2 enzymatic activity; format: biochemical; conditions: 10 nM PRC2 complex, 0.05 mg/ml core histone H3, 1 μM 3H-SAM, 1 hr at 30° C.; read-out: IC50, Inhibition of PRC2-mediated Enzymatic Activity
Method: Ten-point dose-response curves for compounds of the present invention were determined using a Hot Spot HMT assay (Reaction Biology Corp; see Horiuchi et al., Assay Drug Dev Technol. (2013) 4: 227-236 doi: 10.1089/adt.2012.480). The assay uses purified human, His-tagged PRC2 complex, including N-terminal His-tagged EZH2 enzyme, N-terminal Flag-tagged embryonic ectoderm development protein (EED), N-terminal His-tagged suppressor of zeste 12 (SUZ12), N-terminal His-tagged AEBP2, and N-terminal His-tagged RbAp48. In this assay, the transfer of the tritiated methyl group from radiolabeled S-adenosyl methionine (SAM) to purified core histone protein by EZH2 is quantitated after filtration to determine the activity of the core PRC2 complex in the presence and absence of compound.
Briefly, compounds of the present invention were solubilized in DMSO and a series of 10, three-fold serial dilutions were made for each compound in 15% DMSO. The initial starting concentration for the serial dilutions of each compound was 1.0 μM. Control samples lacking compound, EZH2 enzyme or various reaction components also were prepared and processed in parallel with compound test samples. SAH (S-(5-adenosyl)-L-homocysteine) was used as a positive control for assay validation.
An aliquot of each serial dilution of test compound was added to deep 384 well plate using Acoustic Technology instrument (Echo 550, LabCyte) containing reaction buffer (50 mM Tris-HCl (pH 8)), 0.01% Brij35, 1 mM EDTA, 1 mM DTT, 1 mM PMSF and 1% DMSO), 10 nM purified PRC2 complex and 0.05 mg/ml core histone H3 in a 5 μl volume. The reaction was mixed gently and then pre-incubated for 20 min at 30° C. The enzymatic reaction was initiated by adding 1 μM S-Adenosyl-L-[methyl-^3H]methionine and incubated for 1 hr at 30° C. After 1 hr, the reaction product was detected using a filter binding method and the amount of tritiated H3 core histone was quantitated using a scintillation counter. The IC50 value for each compound was determined from each 10-point dose-response curve using GraphPad Prism software and the results for compounds of present invention, including compounds of Formula (I) and Formula (II) are shown in Table 6. Key: A=<100 nM; B=>100 nM−<250 nM; and C=>250 nM.

[2] = tested on: PRC2-mediated histone H3 methylation in Pfeiffer cells (EZH2 A677G); assay: Tri-Methyl Histone H3 (Lys 27) sandwich ELISA in Pfeiffer cells; format: cell-based; conditions: Homo sapiens, 96 hours incubation, H3K27me3 ELISA, read-out: IC50 (nM), Inhibition of EZH2-mediated Histone H3 Trimethylation
Source text: The Pfeiffer cell line was established from a […] from a patient having metastatic diffuse large B-cell lymphoma (DLBCL). This cell line expresses a mutant form of the EZH2 enzyme (A677G) that results in enhanced EZH2 activity leading to increased methylation of histone H3 Lys27. Increased trimethylation of histone H3 Lys27 is believed to be implicated in tumorgenesis and poor clinical prognosis in lymphomas (McCabe et al., (2012) Nature 492:108-112).
Inhibition of PRC2-mediated histone H3 methylation by compounds of Formula (I) was measured by ELISA using a Tri-Methyl Histone H3 (Lys 27) Sandwich ELISA Kit (Cell Signaling Tech #7866C) in accordance with the manufacturer's instructions. Briefly, Pfeiffer cells were cultured in RPMI medium supplemented with 10% fetal bovine serum and 1% penicillin and 1% streptomycin in 96 well culture plates at 37° C. to a density of 8000 cells/90 μl/well and the cells were harvested. A series of 3-fold serial dilutions of each test compound of Formula (I) were prepared in RPMI medium and added to the cells at final concentrations ranging from […] to 0.15 nM. The plates were incubated at 37° C. for 96 hours.
After incubation, the cells were pelleted by centrifugation in a pre-cooled 4° C. rotor at 1,100 rpm for 10 min and the supernatant was removed by aspiration. The cell pellet was resuspended in 55 μl of Lysis Buffer (0.4M HCl) and incubated on ice with periodic shaking for 30 minutes. The lysed cells were subjected to centrifugation at 4,200 rpm for 10 min at 4° C. and the supernatant containing acid-soluble proteins was collected and the remainder discarded. The acid-soluble proteins were brought to a neutral pH by the addition of 20 μl of Neutralization Buffer (1 M Sodium phosphate, dibasic (pH 12.5), 2.5 mM DTT and 1 mM PMSF) and the neutralized lysates were analyzed by ELISA.
A 65 μl aliquot of each cell lysate was added to a well of a microwell strip, the microwells were sealed using tape and incubated either at 37° C. for two hours or at 4° C. overnight. After incubation, the tape was removed at the microwells were washed four times using 200 μl of 1× Wash Buffer. To each washed microwell, a 100 μl aliquot of an anti-trimethyl histone H3 Lys27 Detection Antibody solution was added and the microwells were incubated at 37° C. for one hour. The Detection Antibody solution was removed by aspiration and the wells were washed four times each using 200 μl of 1× Wash Buffer.
A 100 μl aliquot of an HRP-linked secondary antibody was added to each well, the wells were sealed with tape and incubated at 37° C. for 30 min. The HRP-linked secondary antibody solution was removed by aspiration and the wells were washed four times using 200 μl of 1× Wash Buffer. A 100 μl aliquot of a TMB substrate was added to each well, the wells were sealed with tape and incubated at 37° C. for 10 min or 25° C. for 30 min. The reaction was stopped by the addition of 100 μl aliquot of a STOP solution and the plate was shaken briefly. The degree of histone H3 trimethylation was determined using a spectrophotometric readout by measuring the absorbance at 450 nm and then calculating the amount of trimethylated histone H3. A=≤100 nM; B=>100 nM−≤500 nM; C=>500 nM and N.D.=not determined.

[3] = tested on: Karpas 422 cells (EZH2 Y641N); assay: Karpas 422 cell viability (Cell Titre Glo); format: cell-based; conditions: Homo sapiens, CTG viability, Day 4, Day 7 or Day 11 (time point not given), read-out: IC50 (nM), Inhibiting Proliferation of Cells Expressing an Activating Mutant Form of EZH2
Method: Karpas 422 cell line is a human B cell non-Hodgkin's lymphoma cell line established from a patient having DLBCL. This EZH2 heterozygotic cell line expresses a mutant form of EZH2 enzyme (Y641N) that increases histone H3 methylation and this mutation has been implicated in the tumorgenesis of lymphomas, such as DLBCL.
Karpas 422 cells (PHE cat no., 06101702) were cultured in RPMI medium supplemented with 20% fetal bovine serum and 1% penicillin/1% streptomycin and plated at a density of 1000 cells/90 μl/well in 96 well white assay plates. A dose response curve for compounds of the present invention was determined by adding a 10 μl aliquot of stock solutions of varying concentrations of compounds to the same medium in each well, over a concentration range of 10 μM using 3-fold dilutions to a final concentration of 1.5 nM. The plates were incubated at 37° C. for predetermined time periods, Day 4, Day 7, or Day 11, and the viability of the cells was measured using a CTG assay kit (Cell Titre Glo; Promega cat. no G7573) on Day 4 and Day 7 in accordance with the manufacturer's instructions.
For the viability assay for the Day 11 plates, the plates were subjected to centrifugation at 1100 rpm for five minutes on Day 7 and the supernatant was removed by aspiration. The cells were resuspended in 90 μl aliquot of the appropriate growth medium lacking the compound followed by addition of 10 μl of a 10× stock of the same compound at the same concentration. The viability of the Day 11 cells was measured using the CTG assay kit described above in accordance with the manufacturer's instructions. The IC50 values for each compound at each predetermined time point were calculated using Graph pad PRISM software and the results are shown in Table 8. A=≤250 nM; B=[…]−≤500 nM; C=>500 nM and N.D.=not determined.

Chain of purified human, His-tagged PRC2 complex (Q15910 whole entry): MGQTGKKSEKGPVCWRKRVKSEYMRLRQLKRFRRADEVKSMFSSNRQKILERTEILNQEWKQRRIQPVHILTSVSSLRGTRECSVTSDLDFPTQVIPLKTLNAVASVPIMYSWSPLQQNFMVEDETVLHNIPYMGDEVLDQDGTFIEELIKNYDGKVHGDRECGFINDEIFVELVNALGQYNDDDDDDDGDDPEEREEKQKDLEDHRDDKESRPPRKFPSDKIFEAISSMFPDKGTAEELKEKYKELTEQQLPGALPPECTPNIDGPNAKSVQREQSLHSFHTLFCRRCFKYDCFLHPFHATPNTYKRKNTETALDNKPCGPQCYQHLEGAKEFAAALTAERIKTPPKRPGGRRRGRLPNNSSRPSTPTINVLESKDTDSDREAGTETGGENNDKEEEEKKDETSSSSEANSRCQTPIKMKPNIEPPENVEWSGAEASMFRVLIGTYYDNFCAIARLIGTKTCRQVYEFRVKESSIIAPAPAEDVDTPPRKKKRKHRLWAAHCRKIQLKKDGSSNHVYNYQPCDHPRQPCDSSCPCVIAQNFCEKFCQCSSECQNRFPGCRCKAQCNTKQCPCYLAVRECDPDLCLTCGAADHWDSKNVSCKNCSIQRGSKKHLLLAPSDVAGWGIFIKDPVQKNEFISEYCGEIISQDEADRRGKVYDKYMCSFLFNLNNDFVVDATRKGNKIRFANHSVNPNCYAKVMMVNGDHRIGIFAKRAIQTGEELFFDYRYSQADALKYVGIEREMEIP
Chain of purified human, His-tagged PRC2 complex (O75530 whole entry): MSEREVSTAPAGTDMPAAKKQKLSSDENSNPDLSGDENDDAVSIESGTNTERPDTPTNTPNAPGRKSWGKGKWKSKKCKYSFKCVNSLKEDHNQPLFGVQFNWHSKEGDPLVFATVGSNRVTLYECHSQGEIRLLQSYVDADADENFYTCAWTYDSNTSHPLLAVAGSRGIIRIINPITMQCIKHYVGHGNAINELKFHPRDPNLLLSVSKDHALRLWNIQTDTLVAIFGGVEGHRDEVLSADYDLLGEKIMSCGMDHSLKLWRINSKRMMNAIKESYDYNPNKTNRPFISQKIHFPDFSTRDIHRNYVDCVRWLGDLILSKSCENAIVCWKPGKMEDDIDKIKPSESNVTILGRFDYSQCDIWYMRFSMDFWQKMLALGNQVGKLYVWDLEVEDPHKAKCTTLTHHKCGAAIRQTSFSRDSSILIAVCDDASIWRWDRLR
Chain of purified human, His-tagged PRC2 complex (Q15022 whole entry partner): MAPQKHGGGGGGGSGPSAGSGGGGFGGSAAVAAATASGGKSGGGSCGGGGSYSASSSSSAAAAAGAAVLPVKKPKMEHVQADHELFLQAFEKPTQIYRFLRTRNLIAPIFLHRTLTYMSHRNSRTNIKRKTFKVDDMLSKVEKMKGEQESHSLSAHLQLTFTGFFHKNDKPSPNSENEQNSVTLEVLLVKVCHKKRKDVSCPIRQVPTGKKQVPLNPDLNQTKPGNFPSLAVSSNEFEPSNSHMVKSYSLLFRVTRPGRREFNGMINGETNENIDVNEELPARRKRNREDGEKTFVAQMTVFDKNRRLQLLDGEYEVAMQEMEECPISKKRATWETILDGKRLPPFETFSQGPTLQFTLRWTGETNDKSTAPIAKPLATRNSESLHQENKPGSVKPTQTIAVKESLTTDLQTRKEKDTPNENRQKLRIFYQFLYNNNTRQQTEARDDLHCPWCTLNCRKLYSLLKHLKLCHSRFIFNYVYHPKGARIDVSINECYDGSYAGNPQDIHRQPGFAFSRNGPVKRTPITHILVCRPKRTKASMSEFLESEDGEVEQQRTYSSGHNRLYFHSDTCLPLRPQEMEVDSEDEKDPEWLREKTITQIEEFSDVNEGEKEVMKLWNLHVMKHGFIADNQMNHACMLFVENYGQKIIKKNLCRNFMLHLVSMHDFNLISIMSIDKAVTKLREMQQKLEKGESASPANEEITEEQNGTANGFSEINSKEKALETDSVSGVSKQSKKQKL
Chain of purified human, His-tagged PRC2 complex (Q6ZN18 whole entry partner): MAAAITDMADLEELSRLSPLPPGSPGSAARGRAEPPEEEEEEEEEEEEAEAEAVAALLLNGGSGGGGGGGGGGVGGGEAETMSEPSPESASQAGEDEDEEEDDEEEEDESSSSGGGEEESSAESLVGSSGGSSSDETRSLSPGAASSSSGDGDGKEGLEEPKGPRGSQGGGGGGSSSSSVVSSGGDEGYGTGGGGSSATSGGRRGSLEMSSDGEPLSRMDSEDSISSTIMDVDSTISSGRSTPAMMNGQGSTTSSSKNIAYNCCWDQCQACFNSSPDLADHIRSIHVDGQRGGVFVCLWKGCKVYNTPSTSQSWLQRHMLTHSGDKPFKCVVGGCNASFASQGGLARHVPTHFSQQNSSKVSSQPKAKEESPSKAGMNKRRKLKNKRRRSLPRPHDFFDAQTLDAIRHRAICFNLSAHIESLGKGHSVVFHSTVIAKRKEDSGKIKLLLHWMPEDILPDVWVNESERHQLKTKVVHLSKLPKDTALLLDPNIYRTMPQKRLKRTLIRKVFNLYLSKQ
Chain of purified human, His-tagged PRC2 complex (Q09028 whole entry partner): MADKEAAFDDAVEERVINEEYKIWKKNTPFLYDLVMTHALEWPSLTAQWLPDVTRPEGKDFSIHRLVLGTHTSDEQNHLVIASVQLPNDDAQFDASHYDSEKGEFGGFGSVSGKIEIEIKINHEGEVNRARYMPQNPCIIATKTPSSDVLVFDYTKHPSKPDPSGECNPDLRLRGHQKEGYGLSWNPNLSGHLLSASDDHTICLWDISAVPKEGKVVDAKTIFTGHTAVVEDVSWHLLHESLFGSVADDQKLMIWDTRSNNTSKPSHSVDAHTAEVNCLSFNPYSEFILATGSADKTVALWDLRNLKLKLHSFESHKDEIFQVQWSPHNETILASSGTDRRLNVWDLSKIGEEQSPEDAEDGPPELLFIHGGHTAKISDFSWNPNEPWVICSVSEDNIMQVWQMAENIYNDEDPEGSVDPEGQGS

Structure (SMILES)	pIC50 [1]	IC50 [2]	IC50 [3]
COc1ccc2c(NCc3c(F)ccc4c3CCO4)ncc(-c3cc(C)nn3C)c2n1 [Example 52, 8-(1,3-dimethyl-1H-pyrazol-5-yl)-N-((5-fluoro-2,3-dihydrobenzofuran-4-yl)methyl)-2-methoxy-1,6-naphthyridin-5-amine]	< 6.60	> 500 nM	> 500 nM
Cn1nc(C#N)cc1-c1cnc(NCc2c(F)ccc3c2CCO3)c2cnncc12 [Example 16, 5-(5-(((5-fluoro-2,3-dihydrobenzofuran-4-yl)methyl)amino)pyrido[3,4-d]pyridazin-8-yl)-1-methyl-1H-pyrazole-3-carbonitrile]	> 7.00	≤ 100 nM	≤ 250 nM
Cc1cc(-c2cnc(NCc3c(F)ccc4c3CCO4)c3nc[nH]c(=O)c23)n(C)n1 [Example 58, 5-(1,3-dimethyl-1H-pyrazol-5-yl)-8-(((5-fluoro-2,3-dihydrobenzofuran-4-yl)methyl)amino)pyrido[3,4-d]pyrimidin-4(3H)-one]	< 6.60	> 500 nM	> 500 nM
CN(C)Cc1ccc(-c2cnc(NCc3c(F)ccc4c3CCO4)c3c[nH]c(=O)cc23)cc1 [Example 38]	6.60 to 7.00	100 to 500 nM	≤ 250 nM
Cc1cc(S(C)(=O)=O)ccc1-c1cnc(NCc2c(F)ccc3c2CCO3)c2cnncc12 [Example 3]	> 7.00	≤ 100 nM	≤ 250 nM
Cc1ncccc1-c1cnc(NCc2c(F)ccc3c2CCO3)c2c[nH]c(=O)cc12 [Example 36]	< 6.60	100 to 500 nM	≤ 250 nM
Cn1nc(C#N)cc1-c1cnc(NCc2c(F)ccc3c2CCO3)c2cnccc12 [Example 33, 5-[1-[(5-fluoro-2,3-dihydrobenzofuran-4-yl)methylamino]-2,7-naphthyridin-4-yl]-1-methyl-pyrazole-3-carbonitrile]	6.60 to 7.00	> 500 nM	> 500 nM
CN(C)C(=O)c1cc(-c2cnc(NCc3c(F)ccc4c3CCO4)c3cnncc23)n(C)n1 [Example 15, 5-(5-(((5-fluoro-2,3-dihydrobenzofuran-4-yl)methyl)amino)pyrido[3,4-d]pyridazin-8-yl)-N,N,1-trimethyl-1H-pyrazole-3-carboxamide]	> 7.00	≤ 100 nM	≤ 250 nM
Cc1cc(-c2cnc(NCc3c(F)ccc4c3CCO4)c3cnc(OCCN(C)C)cc23)n(C)n1 [Example 44]	< 6.60	100 to 500 nM	≤ 250 nM
Cc1cc(S(C)(=O)=O)ccc1-c1cnc(NCc2c(F)ccc3c2CCO3)c2c[nH]c(=O)cc12 [Example 40]	6.60 to 7.00	100 to 500 nM	≤ 250 nM
CN(C)CCn1nccc1-c1cnc(NCc2c(F)ccc3c2CCO3)c2c[nH]c(=O)cc12 [Example 46, 5-(1-(2-(dimethylamino)ethyl)-1H-pyrazol-5-yl)-8-(((5-fluoro-2,3-dihydrobenzofuran-4-yl)methyl)amino)-2,7-naphthyridin-3(2H)-one]	< 6.60	100 to 500 nM	≤ 250 nM
CNS(=O)(=O)c1ccc(-c2cnc(NCc3c(F)ccc4c3CCO4)c3cnncc23)cc1 [Example 7]	> 7.00	≤ 100 nM	≤ 250 nM
CCNCc1ccc(-c2cnc(NCc3c(F)ccc4c3CCO4)c3cnncc23)c(C)c1 [Example 20, 8-(4-((ethylamino)methyl)-2-methylphenyl)-N-((5-fluoro-2,3-dihydrobenzofuran-4-yl)methyl)pyrido[3,4-d]pyridazin-5-amine]	> 7.00	≤ 100 nM	≤ 250 nM
Cc1cc(-c2cnc(NCc3c(F)ccc4c3CCO4)c3ccc(=O)[nH]c23)n(C)n1 [Example 53]	< 6.60	100 to 500 nM	≤ 250 nM
Cc1cc(-c2cnc(NCc3c(F)ccc4c3CCO4)c3ccncc23)n(C)n1 [Example 56, 4-(1,3-dimethyl-1H-pyrazol-5-yl)-N-((5-fluoro-2,3-dihydrobenzofuran-4-yl)methyl)-2,6-naphthyridin-1-amine]	< 6.60	100 to 500 nM	> 500 nM
CN(C)C(=O)c1cc(-c2cnc(NCc3c(F)ccc4c3CCO4)c3cnccc23)n(C)n1 [Example 32, 5-(1-(((5-fluoro-2,3-dihydrobenzofuran-4-yl)methyl)amino)-2,7-naphthyridin-4-yl)-N,N,1-trimethyl-1H-pyrazole-3-carboxamide]	> 7.00	≤ 100 nM	≤ 250 nM
O=c1cc2c(-c3ccc(CN4CCCC4)cc3)cnc(NCc3c(F)ccc4c3CCO4)c2c[nH]1 [Example 37]	6.60 to 7.00	100 to 500 nM	≤ 250 nM
